This note sets out measurements from PMC4015918, “Conjugation to a SMAC mimetic potentiates sigma-2 ligand induced tumor cell death in ovarian cancer” (Molecular Cancer, 2014).

Test [1] has as its system ovarian cancer cell lines (SKOV3, OVCAR3, HEY A8, HEY A8 MDR). Kind of test: Cell viability (CellTiter-Glo) in a panel of four ovarian cancer cell lines. The class given is cell-based. Particulars: increasing doses, 18 hours. On the procedure: (A) SKOV3, (B) OVCAR3 (C) HEY A8 and (D) HEY A8 MDR cells were treated with increasing doses of SW43, SW IV-52, SW43 plus SW IV-52, and SW IV-134 for 18 hours. Cell viability was determined by CellTiter-Glo assays [p < 0.015 (A), NS (B), p < 0.017 (C), p < 0.034 (D), one-way ANOVA].
Cells (1 × 10^4) were seeded into 96 well plates. Treatment as described in the figure legends was initiated the following day. Cell viability was determined 18 hours after treatment using CellTiter-Glo Luminiscent Viability Assay (Promega, Madison, WI). Data were recorded with a SpectraMax Gemini microplate spectrofluorometer, Molecular Devices (Silicon Valley, CA).

Test [2] deals with NIK. Kind of test: Western blot for NF-қB-inducing kinase (NIK). The class given is cell-based. Particulars: SKOV3 cells, 10 μM, 4 hours. On the procedure: Figure 4 SW IV-134 engages in SMAC-dependent pathway activation. (A) SKOV3 cells were treated with vehicle only (Ctrl.), SW43 (10 μM), and SW IV-134 (10 μM) for 4 hours and cell lysates were subjected to Western blot analysis using antibodies against XIAP, cIAP-1, cIAP-2, NF-қB and NIK. While XIAP seems unaffected under the conditions used, cIAP-1 and cIAP-2 proteins are readily undetectable shortly post treatment. SW IV-134 treatment also leads to accumulation of NF-қB inducing kinase (NIK) and activation of NF-қB pathway. (B) SKOV3 cells were treated with SW IV-134 at the indicated doses either alone or in the presence of proteasome inhibitor MG132 (20 μM) for 18 hours. […] Cell viability was determined as described in the experimental methods (p < 0.011, Student’s t-test).
Cells were lysed in radioimmunoprecipitation assay buffer [50 mM Tris, 150 mM sodium chloride, 1.0 mM EDTA, 1% Nonidet P40, and 0.25% SDS (pH 7.0)], supplemented with complete protease inhibitor cocktail (Roche, Mannheim) and phosphatase inhibitor cocktail 1 (Sigma Chemical Co., St. Louis, MO). The protein concentration was determined using a BioRad Dc protein assay kit (Bio-Rad Laboratories, Hercules, CA). Lysates containing 30 μg of protein were run on a 12% polyacrylamide gel and transferred to a PVDF membrane (Bio-Rad Laboratories, Hercules, CA). […]
A general note: A western blot detects proteins with antibodies after separation by electrophoresis.

The test system of test [3] is SKOV3-Luc xenografts. Kind of test: Intraperitoneal SKOV3-Luc xenograft model of ovarian cancer (bioluminescence imaging, survival). In kind it is in vivo, SCID mice. Particulars: for Tumor response by bioluminescence signal intensity during treatment: start 7 days after inoculation, first week onward; for Median survival: daily i.p. for 3 weeks, 10 mice per group followed, vehicle 74 days. The source says:
Figure 6 SW IV-134 is a potent single-agent cancer drug in a peritoneal mouse xenograft model of ovarian cancer. (A) Female SCID mice were inoculated intraperitoneally with 5 × 10^6 SKOV3-Luc cells. Treatment was initiated with intraperitoneal injections of SW43, SW IV-134, or vehicle control 7 days after tumor cell inoculation, and continued for a total of 3 weeks. Mice were imaged once a week during the treatment period. Change in bioluminescence photon flux during treatment in each experimental arm (n = 15) was evaluated. Bioluminescent signals at each time point were averaged per treatment group (mean ± SEM). Significant differences were noted between vehicle vs. SW IV-134 and SW43 vs. SW IV-134 (p < 0.0097, one-way ANOVA). (B) Bioluminescent images at the end of the treatment (day 21) of one representative mouse per treatment arm (n = 15). […] (C) Kaplan-Meier survival analysis. At the end of the 3 week treatment, 5 mice from each experimental group were subjected to necropsy. The remaining 10 mice from each treatment group were followed until death to examine overall survival (p < 0.0108, Log-rank test).
All studies were performed in accordance with an animal protocol approved by the Washington University Institutional Animal Care Facility. Female severe combined immunodeficient mice (SCID) were purchased from Taconic Farms (Hudson, NY) at age 6 weeks. SKOV3-Luc cells (5 × 10^6) were inoculated intraperitoneally and mice were randomized 7 days later into one of the three treatment groups according to their baseline luciferase activity employing bioluminescence imaging (BLI). For bioluminescence imaging, mice were injected intraperitoneally with 150 μg/g D-luciferin (Biosynth, Naperville, IL) in PBS, anesthetized with 2.5% isoflurane, and imaged with a charge-coupled device (CCD) camera-based bioluminescence imaging system (IVIS 100; Caliper, Hopkinton, MA; exposure time 300 seconds, binning 16, field of view 12, f/stop 1, open filter).
In vivo experiments were conducted with 15 mice per treatment group. Treatment involved daily intraperitoneal injections with 90 μL of SW43 (7.5 mM stock), SW IV-134 (7.5 mM stock), or vehicle-only (25% cremophor in H2O) for 3 weeks. Tumor burden was monitored by bioluminescence imaging once a week during the treatment period. At the end of the treatment, 5 mice were randomly removed per treatment group and submitted for necropsy to the Washington University Department of Comparative Medicine. Blood samples were collected by intracardiac withdrawal prior to necropsy for chemistry and hematology work-up. In addition, various key organs were harvested for gross and histopathological examination. The remaining 10 mice from each treatment group were followed over time to examine overall survival. For survival studies, actual death or poor physical condition/large tumor size meeting criteria for euthanasia, constituted a death event.

The mark [4] stands for this setting: daily i.p. 90 μL of 7.5 mM stock.

Molecules are shown by their SMILES.

In the case of `COc1ccc(C)cc1NC(=O)OC1CC2CCCC(C1)N2CCCCCCCCCCN` (stereo not shown) [SW43, reference compound], in test [1], the “Killing activity (cell viability)” value is “effective against different ovarian cancer cell lines”. Besides, in test [2], the “Accumulation of NIK” value was “not seen”. In test [3] (setting [4]), the “Tumor response by bioluminescence signal intensity during treatment” value is given as “signal intensity increased”. For the same compound, the Median survival in test [3] was found to be 76.5 days.
Regarding `COc1ccc(C)cc1NC(=O)OC1CC2CCCC(C1)N2CCCCCCCCCCN[C@@H](C)C(=O)N[C@H](C(=O)N1CCC[C@H]1C(=O)N[C@@H]1CCCc2ccccc21)C(C)(C)C` (stereo partly shown) [SW IV-134], the “Killing activity (cell viability)” value in test [1] is on record as “greater cytotoxicity”. Further, the “Accumulation of NIK” value in test [2] is on record as “accumulation of NIK”. Besides, the “Bioluminescence signal intensity at the end of the 3 week treatment” value in test [3] (daily i.p. 90 μL of 7.5 mM stock, day 21) was “significantly lower than both the SW43 and the vehicle-only treatment groups”. The “Tumor response by bioluminescence signal intensity during treatment” value in test [3] (setting [4]) is given as “Tumor regression was evident by the end of the first week of treatment”. In addition, the Median survival in test [3] is on record as 86.5 days. In addition, in test [3] (intraperitoneal metastatic model), the “Extension of median survival” value worked out at 10 days.
